Drawing on patent US20240325326A1, “METHOD OF TREATING PULMONARY FIBROSIS BY TARGETING GLYCOGEN UTILIZATION” (University of Kentucky Research Foundation, priority 2023, published 2024), this text covers fibrosis-related gene expression for one compound.

Molecules are shown by their SMILES. Entries after “also recorded” stand apart in the source; their conditions may differ.

The test system of this assay is diseased human lung fibroblasts (DHLF). As to the kind of experiment: Fibrosis-related gene expression (Bio-rad Prime PCR Fibrosis gene panel) in human lung fibroblasts treated for two days with a laforin inhibitor. It counts as cell-based. Conditions: NHLF or DHLF derived from idiopathic pulmonary fibrosis patients; treated two days vs vehicle control; mRNA; n=3 samples per condition; FIG. 14. How it is done: Normal human lung fibroblasts (NHLF) or diseased human lung fibroblasts (DHLF) derived from idiopathic pulmonary fibrosis patients were treated for two days with a laforin inhibitor (or vehicle control) before harvesting mRNA and assessing gene expression. Samples were run on Bio-rad Prime PCR Fibrosis gene panel plates with n=3 samples per condition. *p<0.05, ***p<0.001 two-tailed student's t-test.
Normal human lung fibroblasts (NHLF) or diseased human lung fibroblasts (DHLF) derived from idiopathic pulmonary fibrosis patients were treated for two days with a laforin inhibitor (or vehicle control). […] Following treatment, mRNA was harvested from the cells and gene expression was assessed.

On to `O=C(Nc1ccc(OCc2ccccc2)c(Cl)c1)C(=O)Nc1ccccc1NC(=O)C(c1ccccc1)S(=O)(=O)O` (stereo not shown) [L319-21-M50], for which the fibrosis-related gene expression result is “disease-specific expression patterns being rescued by laforin inhibition; also recorded: decreases fibrosis-related gene expression in diseased human lung fibroblasts”.
